Assay results as given in patent US8685935B2, “Use of flavonoids to increase the bioavailability of hesperetin” (Nestec S.A., priority 2009, dated 2014).

Test system: Caco-2 cell monolayers
Experiment: Caco-2 cell monolayer Transwell model: formation and transport of hesperetin and its conjugates
Format: in vitro ADME
Conditions: 120 minutes upon exposure to 10 μM (5 nmol) hesperetin added to the apical compartment
Method: Caco-2 cell monolayers were grown on permeable filters that divide a two-compartment cell culture system. Although originally derived from a colonic adenoma carcinoma, differentiating Caco-2 cells are known to display morphological and biochemical properties of intestinal enterocytes including the formation of a polarized layer with expression of ABC transport proteins including Pgp, MRP1, MRP2 and BCRP and metabolizing enzymes.
Using the Caco-2 cell monolayer Transwell model in which the cells in the apical compartment were exposed to hesperetin, or combinations of hesperetin and other flavonoids, we studied the formation and transport of intestinal hesperetin conjugates, which were formed by the Caco-2 cells. 120 minutes upon exposure to 10 μM (5 nmol) hesperetin added to the apical compartment. […] These metabolites were identified as hesperetin 7-O-glucuronide and hesperetin 7-O-sulfate.

COc1ccc([C@@H]2CC(=O)c3c(O)cc(O[C@@H]4O[C@H](C(=O)O)[C@@H](O)[C@H](O)[C@H]4O)cc3O2)cc1O [hesperetin 7-O-glucuronide]
amount of metabolite in apical compartment compared to basolateral: detected at much higher amounts in the apical compartment compared to the basolateral

COc1ccc([C@@H]2CC(=O)c3c(O)cc(OS(=O)(=O)O)cc3O2)cc1O [hesperetin 7-O-sulfate]
amount of metabolite in apical compartment compared to basolateral: detected at much higher amounts in the apical compartment compared to the basolateral
